We go through five compounds from paper PMC8275010 (Nature medicine, 2021).

For orientation: Tmax means the time from dosing to the highest level.

Several values for one entry are separate records, joined by “and”; a condition that tells them apart may be missing. Equal values may be shown once.

For data set [1], the system named is plexiform neurofibroma. Particulars: cited from earlier work.
The format of data set [2] is in vivo, mouse.
Data set [3] has as its system plexiform neurofibroma in Nf1^flox/flox;PostnCre mice. Nature of the data set: Plexiform neurofibroma tumor burden and histopathology in Nf1flox/flox. The class given is in vivo, mouse.
For data set [4], the target named is T1, AXL (Mus musculus, UniProt Q00993).
T1 sequence (Q00993 19-888): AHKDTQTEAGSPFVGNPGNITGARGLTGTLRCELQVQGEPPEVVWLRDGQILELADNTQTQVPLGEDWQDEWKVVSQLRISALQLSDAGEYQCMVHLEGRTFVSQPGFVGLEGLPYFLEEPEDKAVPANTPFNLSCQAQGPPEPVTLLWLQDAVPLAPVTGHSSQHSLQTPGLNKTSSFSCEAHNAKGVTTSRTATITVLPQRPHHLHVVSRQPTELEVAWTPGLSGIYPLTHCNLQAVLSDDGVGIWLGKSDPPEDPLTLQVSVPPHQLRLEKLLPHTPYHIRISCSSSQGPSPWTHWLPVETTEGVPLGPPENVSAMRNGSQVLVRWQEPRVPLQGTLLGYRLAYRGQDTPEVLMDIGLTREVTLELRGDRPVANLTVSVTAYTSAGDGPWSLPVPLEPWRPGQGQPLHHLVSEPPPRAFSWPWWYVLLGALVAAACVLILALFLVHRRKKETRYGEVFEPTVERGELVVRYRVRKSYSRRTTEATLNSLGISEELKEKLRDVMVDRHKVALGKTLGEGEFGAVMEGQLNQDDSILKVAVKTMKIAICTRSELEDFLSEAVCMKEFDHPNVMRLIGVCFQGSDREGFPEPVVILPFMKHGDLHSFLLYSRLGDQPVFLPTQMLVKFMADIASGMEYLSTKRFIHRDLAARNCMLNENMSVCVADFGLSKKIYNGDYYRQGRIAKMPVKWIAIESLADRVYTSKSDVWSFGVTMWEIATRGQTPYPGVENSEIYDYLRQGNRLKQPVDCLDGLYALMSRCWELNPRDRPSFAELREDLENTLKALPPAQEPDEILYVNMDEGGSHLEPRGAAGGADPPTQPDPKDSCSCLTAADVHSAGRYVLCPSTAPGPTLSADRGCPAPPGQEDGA
Nature of the data set: AXL in tumor bearing nerve tissue of treated mice. The class given is in vivo. Particulars: 12 weeks of treatment vs vehicle; IHC and western blot. In general terms: In western blotting, separated proteins are transferred to a membrane and probed.

Data set [5] has as its system soluble AXL (sAXL). In words: Mouse sAXL ELISA in plasma. The class given is in vivo. The settings on record: 12 weeks of treatment; vs WT mice or vehicle treated Nf1flox/flox;PostnCre mice. A general note: An ELISA detects its analyte on a solid surface through an enzyme-linked reagent.
For data set [6], the system named is plexiform neurofibroma tumor tissues. Nature of the data set: TUNEL staining of nerve tissues of treated mice. In kind it is in vivo, mouse.
Data set [7] has as its target T2, DDR1 (Mus musculus, UniProt Q03146).
T2 sequence (Q03146 20-911): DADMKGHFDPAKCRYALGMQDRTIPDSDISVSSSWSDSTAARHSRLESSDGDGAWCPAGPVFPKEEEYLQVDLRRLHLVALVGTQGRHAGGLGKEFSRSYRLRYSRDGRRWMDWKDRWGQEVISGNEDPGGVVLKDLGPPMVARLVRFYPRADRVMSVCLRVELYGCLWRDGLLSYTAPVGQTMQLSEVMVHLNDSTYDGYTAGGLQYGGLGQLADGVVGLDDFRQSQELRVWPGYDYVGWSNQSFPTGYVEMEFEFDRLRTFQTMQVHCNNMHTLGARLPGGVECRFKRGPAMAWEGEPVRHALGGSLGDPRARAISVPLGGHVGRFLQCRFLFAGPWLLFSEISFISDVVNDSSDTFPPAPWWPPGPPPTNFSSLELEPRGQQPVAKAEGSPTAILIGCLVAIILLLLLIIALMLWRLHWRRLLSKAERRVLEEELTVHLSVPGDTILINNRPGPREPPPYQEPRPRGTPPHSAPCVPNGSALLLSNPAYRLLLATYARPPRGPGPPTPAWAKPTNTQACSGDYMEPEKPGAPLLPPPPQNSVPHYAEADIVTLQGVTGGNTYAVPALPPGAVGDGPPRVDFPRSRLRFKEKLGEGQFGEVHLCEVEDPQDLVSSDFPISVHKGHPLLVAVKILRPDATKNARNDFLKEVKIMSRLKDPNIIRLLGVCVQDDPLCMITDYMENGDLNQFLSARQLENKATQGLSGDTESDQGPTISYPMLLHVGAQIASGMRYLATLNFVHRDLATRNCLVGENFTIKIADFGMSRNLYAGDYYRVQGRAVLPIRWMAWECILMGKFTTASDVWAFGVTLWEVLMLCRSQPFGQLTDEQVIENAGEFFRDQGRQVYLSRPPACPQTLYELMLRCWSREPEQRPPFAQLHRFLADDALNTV
In words: MIB/MS kinome profiling of sciatic nerve tumor tissue after in vivo treatment. Particulars: 7 days of sustained treatment vs vehicle.

For data set [8], the target named is T3, DDR2 (Mus musculus, UniProt Q62371).
T3 sequence (Q62371 22-854): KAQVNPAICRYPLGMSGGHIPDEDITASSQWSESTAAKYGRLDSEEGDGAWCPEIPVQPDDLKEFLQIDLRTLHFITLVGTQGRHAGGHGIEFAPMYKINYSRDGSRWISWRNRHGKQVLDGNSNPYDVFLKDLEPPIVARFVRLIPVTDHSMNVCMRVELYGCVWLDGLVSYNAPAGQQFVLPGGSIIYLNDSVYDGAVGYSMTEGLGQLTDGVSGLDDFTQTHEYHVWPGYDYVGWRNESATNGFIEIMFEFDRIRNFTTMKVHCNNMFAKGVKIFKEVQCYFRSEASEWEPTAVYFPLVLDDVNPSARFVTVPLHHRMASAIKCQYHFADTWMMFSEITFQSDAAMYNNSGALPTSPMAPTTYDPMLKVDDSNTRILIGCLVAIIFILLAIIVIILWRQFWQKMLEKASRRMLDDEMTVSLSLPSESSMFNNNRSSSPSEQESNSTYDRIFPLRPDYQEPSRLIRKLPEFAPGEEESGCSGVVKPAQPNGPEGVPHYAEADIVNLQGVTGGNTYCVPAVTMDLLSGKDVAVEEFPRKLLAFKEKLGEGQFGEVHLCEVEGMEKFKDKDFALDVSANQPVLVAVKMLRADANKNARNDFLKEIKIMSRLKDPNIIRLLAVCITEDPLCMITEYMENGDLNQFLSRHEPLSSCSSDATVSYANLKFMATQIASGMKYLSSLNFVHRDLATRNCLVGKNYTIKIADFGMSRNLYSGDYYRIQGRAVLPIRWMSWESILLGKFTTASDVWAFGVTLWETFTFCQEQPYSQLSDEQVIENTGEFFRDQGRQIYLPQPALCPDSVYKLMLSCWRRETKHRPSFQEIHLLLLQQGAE
The description is as above. The settings on record: 7 days of sustained treatment vs vehicle.

The target of data set [9] is T1, AXL. The description is as above. Particulars: 7 days of sustained treatment vs vehicle.
In data set [10] the test system is AXL. Nature of the data set: pAXL western blot after GAS6 stimulation. In kind it is cell-based. Particulars: GAS6 200-250 ng/mL; cabozantinib 1000-2500 nM; Schwann cells, fibroblasts, ECFCs.
Data set [11] has as its system human immortalized NF1−/− Schwann cells (iPNF95.6). In words: Caspase 3/7 Glo apoptosis assay. The class given is cell-based. The settings on record: 24 hours; cabozantinib 39 nM to 5 μM; Navitoclax 1 μM positive control.
Data set [12] relates to NF1-related plexiform neurofibroma. In kind it is in vivo, human.
Data set [13] is described as follows: Phase 2 trial NCT02101736: safety and tolerability. The settings on record: in vivo. Set-up: species or system human.
The format of data set [14] is in vivo, human. Particulars: baseline to cycle 12.
The nature of data set [15]: Phase 2 trial NCT02101736: clinical pharmacokinetics. The settings on record: 40 mg dose, human plasma. The class given is in vivo.
In data set [16] the test system is malignant peripheral nerve sheath tumor (MPNST) murine model. The settings on record: cabozantinib and mirdametinib; Nf1 and Trp53 compound mutations; cited from earlier work.

With `Cn1cnc2c(F)c(Nc3ccc(Br)cc3Cl)c(C(=O)NOCCO)cc21` [selumetinib], in data set [1] (children with progressive PN), the partial response rate is listed as 74%.

Take `COc1cc2nccc(Oc3ccc(NC(=O)C4(C(=O)Nc5ccc(F)cc5)CC4)cc3)c2cc1OC` [cabozantinib]: in data set [2] (Nf1flox/flox;PostnCre, mouse, plasma, po, 15 mg/kg), the Tmax is 2 h. In addition, the “maximum concentration in plasma” value in data set [2] (single 15mg/kg oral gavage dose, Nf1flox/flox;PostnCre mice, plasma) amounted to 6800 ng/mL. For the same compound, the “maximal concentration in nerve tissue” value in data set [2] (single 15mg/kg oral gavage dose, nerve tissue) came out at 636 ng/g. Moreover, in data set [3] (15mg/kg daily oral gavage, 12 weeks, relative to vehicle control), the “reduction of number of PN per mouse” value is on record as “approximately 60%”. Also, the “reduction of mean volume of the proximal peripheral nerve roots” value in [3] (15mg/kg daily oral gavage, 12 weeks, vs vehicle) turned out to be 38%. In data set [3] (toluidine blue stained sections, 12 weeks treatment vs vehicle, P = 0.1013), the mast cell infiltration entry was “not significantly changed”. Besides, the “neoangiogenesis (blood vessels, CD31 immunohistochemistry)” value in data set [3] (treated tumors versus vehicle control, P < 0.0001) is recorded as “significant reduction”. In addition, the “AXL in treated tissues” value in [4] is listed as “significant decline”. For the same compound, in data set [5], the sAXL in plasma entry is reported as “significantly elevated”. Besides, the “apoptosis in nerve tissues (TUNEL staining)” value in data set [6] was “negative for TUNEL staining”. The “MIB binding of DDR1” value in [7] is recorded as “loss of MIB binding”. For the same compound, the “MIB binding of DDR2” value in [8] is “loss of MIB binding”. Also, in [9], the “MIB binding of AXL” value was “loss of MIB binding”. The “Gas6 mediated activation of AXL at the biochemical level (pAXL)” value in [10] was “inhibited”. Also, in data set [11], the “apoptosis (caspase 3/7 activity)” value is reported as “does not induce apoptosis”. The “disease progression while on study” value in data set [12] (19 evaluable participants) is given as “No patient had disease progression”. The “partial response rate (PR, ≥20% reduction in target lesion volume by MRI)” value in data set [12] (19 evaluable participants, 40 mg escalated to 60 mg once daily) was 42% and 42.1%. Moreover, in data set [12] (in vivo), the “participants in whom maximal tumor response was not achieved until cycle 18” value is given as 4 and the “participants in whom maximal tumor response was not achieved until cycle 24” value worked out at 2. The “number of participants with PR” value in data set [12] (of the 19 participants evaluable for response) is 8. Further, in [13], the “participants requiring dose reductions while on study” value was “Seven”, the “participants with grade 3 adverse events” value was found to be 8 and the “patients requiring dose reduction or discontinuation of therapy due to AEs” value is on record as “Nine”. The “mean decrease in worst tumor pain intensity” value in [14] (responder group) is listed as 3 points. In data set [14] (responders, p<0.0001), the “reduction in reported tumor pain (NRS-11), LSM estimate” value is on record as 3.00. Moreover, the “change in PedsQL NF1 general pain and hurt scale, LSM estimate” value in data set [14] (total sample, p=0.0036, improvement) is −14.98. The “dose-normalized mean trough level” value in [15] (Cycle 1 Day 15) is 16.5 ng/mL/mg. Besides, in data set [15] (end of Cycle 1), the “dose-normalized mean trough level” value came out at 20.7 ng/mL/mg. Besides, the “tumor growth in MPNST murine model” value in data set [16] is “reduce growth”.

As to `CC1(C)CCC(c2ccc(Cl)cc2)=C(CN2CCN(c3ccc(C(=O)NS(=O)(=O)c4ccc(N[C@H](CCN5CCOCC5)CSc5ccccc5)c(S(=O)(=O)C(F)(F)F)c4)cc3)CC2)C1` [Navitoclax], the “apoptosis (caspase 3/7 activity)” value in [11] was “robust increase”.

For pegylated interferon alfa-2b, the “clinical outcome in PN” value in [1] is recorded as “only prolonged PN time to progression”.

With `O=C(NOC[C@H](O)CO)c1ccc(F)c(F)c1Nc1ccc(I)cc1F` [mirdametinib], the “tumor growth in MPNST murine model” value in data set [16] is reported as “reduce growth”.
